Measured values taken from ChEMBL document CHEMBL3507680, “University of Dundee, Gates Library screen for HepG2 cell viability”.

Test: Human HepG2 cell viability assay in 384 well format
Format: toxicity, cell-based
Set-up: dose 125 nL, time 70.5 hour; cytotoxicity at 70.5 h: concentration not given beside the values
Details: HepG2 cells, read-out: Inhibition

Compound | cytotoxicity at 70.5 h [%]
CCC1=NN2C(=N)/C(=C\c3cccn3-c3cccc(Cl)c3)C(=O)N=C2S1 | -0.175
O=c1c2ccccc2nc2n1CCC2O (stereo unspecified) | -12.8
CC[C@H]1CN2CC[C@H]1C[C@@H]2CNCc1ccc(OC)cc1 | -3.31
CN1CCC(N2C[C@H](O)C[C@H]2c2nc(Cc3ccccc3)no2)CC1 | -7.37
CC(C)(C)NC(=O)C[C@@H]1CCNC[C@@H]1Cc1cc(C(C)(C)C)on1 | -1.48
Cc1ccc(-c2noc([C@@H]3C[C@H](NC(=O)NC(C)C)CN3C)n2)cc1 | -7.56
CN1CCN(CC[C@@H]2CC[C@H](O)[C@@H](C(=O)Nc3ccccc3)O2)CC1 | 1.15
O=C1N[C@@H]2CCN(C(=O)C3CC3)[C@@H]2C(=O)N1c1ccccc1 | -10.7
COc1ccccc1-c1nnc([C@H]2CCN(C(C)=O)C2)o1 | -6.37
c1cc(-c2nnc([C@H]3CCNC3)o2)ccn1 | -2.31
CN1C(=O)CO[C@H]2CN(C(=O)Nc3ccc(F)cc3)C[C@H]21 | -7.97
Fc1ccc2nc([C@H]3CCNC3)[nH]c2c1 | -0.112
CC(C)NC(=O)N1CCN2C(=O)OC[C@H]2C1 | 10.9
F[C@@H]1CN(CC2CC2)C[C@@H]1OCc1nc2ncccc2[nH]1 | -3.03
O=C1NC[C@H]2CN(C3CCOCC3)CCN12 | -4.38
CC1=C[C@@H](CN2CCCC2)[C@H](C(C)C)C[C@H]1Cc1nnc(C)o1 | -4.38
COCC(=O)NC[C@H]1C[C@@H]2CCN1C[C@@H]2CN1CCc2ccccc2C1 | -12.4
CC1=C[C@@H](CN2CCOCC2)[C@H](C(C)C)C[C@H]1Cc1nnc(C)o1 | -5.39
COC(=O)c1cccc2nc([C@H]3CCN(Cc4ccccc4)C3)oc12 | -11.8
CN1CCC[C@H]1c1nc(-c2cncnc2N)no1 | -7.81
Nc1ncncc1-c1noc([C@@H]2CCCN2CC2CC2)n1 | 9.61
Cc1ccc(S(=O)(=O)NC[C@H]2OC[C@@H](NCc3cccnc3)[C@@H]2O)cc1 | -7.82
Cn1cncc1-c1nnc([C@H]2CCN(C3CCOCC3)C2)o1 | -3.04
CN1C[C@@H](F)[C@@H](OCc2nc3ccccc3[nH]2)C1 | -5.45
CC(C)NC(=O)NC[C@H]1OC[C@@H](NCc2ccc(F)cc2)[C@@H]1O | -4.37
CC(C)(C)c1cc(C[C@H]2CNCC[C@H]2CC(=O)Nc2ccccc2)no1 | -2.1

Compound | cytotoxicity at 70.5 h [%]
CC(C)NC[C@H]1COCc2nc3cccnc3n21 | -8.17
CS(=O)(=O)N1CC[C@H](c2nc3ccc(C(F)(F)F)cc3[nH]2)C1 | -4.96
FC(F)(F)Oc1ccc(-c2noc([C@@H]3Cc4nc[nH]c4CN3)n2)cc1 | -4.51
CN1CCC(N2CC[C@H](c3nc4ccc(C(F)(F)F)cc4[nH]3)C2)CC1 | -13.2
O=C1CO[C@H]2CN(C3CCOCC3)C[C@H]2N1Cc1ccccn1 | 1.72
COCc1ccc(CN[C@H]2C[C@@H](Cc3cc(CCO)on3)C2(C)C)o1 | -1.61
COc1ccc(-c2noc([C@@H]3C[C@@H](O)CN3C3CCOCC3)n2)cc1 | 41.8
CC(C)C[C@@H]1N[C@H](C(=O)NC2CCOCC2)Cc2c[nH]c3cccc1c23 | -4.79
CN1C(=O)CO[C@H](c2ccc(NC(=O)c3cccc(F)c3)cc2)[C@H]1CO | -0.0128
CC(=O)N1CCC(N2CCOC[C@H]2c2nc(-c3cccnc3)c[nH]2)CC1 | 17.9
CC(C)(C)CC(=O)NC[C@H]1OC[C@@H](NCc2ccccn2)[C@@H]1O | -10.1
O=S(=O)(NC[C@H]1C[C@@H]2CCN1C[C@@H]2CN1CCCCC1)c1ccccc1 | -6.11
CCN(CC)CC[C@H]1CN(C(=O)C(C)(C)C)CC[C@H]1CC(=O)O | -8.97
CCNC(=O)N1CC[C@@H](CC(=O)O)[C@@H](CC2=NCCc3ccccc32)C1 | -2.71
Cc1cc(O)cc2c(=O)oc(CC(C)O)cc12 (stereo unspecified) | -6.88
Oc1ccc([C@H]2Oc3cc(O)cc(O)c3C[C@@H]2O)cc1 | -11.9
Cc1nc(SCC(=O)Nc2ccc(C(N)=O)cc2)c(C#N)c(C)c1C | 4.83
Cc1ccc(-c2noc(C(C)NS(C)(=O)=O)n2)cc1 (stereo unspecified) | 21.2
Cc1ccc(-c2ccc(=O)n(CC(=O)Nc3nccs3)n2)cc1 | -4.07
CN(C)CCNCC1CCOC(C)(C)C1 (stereo unspecified) | -10.1
CCN(CC)CCCNCC1CCOC(C)(C)C1 (stereo unspecified) | -3.64
CCN(CC)CCNc1c(-c2ccccc2)c(=O)c1=O | -0.107
CCCNCc1cc2c(C)cc(C)cc2n2c(=O)n(C)nc12 | -8.78
O=C(Cn1ccnc1)N1C[C@@H]2CC[C@H](Oc3ccccc3Cl)[C@@H]2C1 | 1.01
CN(C)CC(=O)N1C[C@@H]2CC[C@H](Oc3ccccc3Cl)[C@@H]2C1 | -15.6
CC(C)N1CCC(Cc2cnc(-c3cccc(C(=O)O)c3)cn2)C1 (stereo unspecified) | -19.1

Compound | cytotoxicity at 70.5 h [%]
CN(C)Cc1ccnc(C2CCCN2Cc2ccncc2)n1 (stereo unspecified) | 18.5
Cc1cnccc1CN1C[C@@H](O)[C@H](Oc2ccccc2)C1 | -5.34
CNC(=O)C1(c2cnccn2)CCCN1C(=O)c1ccccc1OC (stereo unspecified) | 13.3
Cc1ccccc1S(=O)(=O)N1CCCCC1c1ccn[nH]1 (stereo unspecified) | -28.4
Cc1cncc(C2CCCN(C(=O)c3ccc(C)[nH]c3=O)C2)n1 (stereo unspecified) | -4.5
Cc1cc(-c2cnn(CCNC(=O)C3CC3)c2C2CC2)on1 | 27
Cn1ccnc1CN1CCOCC(Cc2ccccn2)C1 (stereo unspecified) | -12.6
O=S(=O)(c1ccccc1Cl)N1CCc2nc(C3CCNCC3)ncc2C1 | -3.67
CCC(=O)N1CCC(O)(c2ncc(OC)nc2OC)CC1 | -12.8
O=C(c1ccc(F)cc1F)N1CC[C@H](O)[C@@H](N2CCOCC2)CC1 | -13.9
CC(C)(N)C(=O)N1CCCC1c1cncc(Oc2ccc(F)cc2)n1 (stereo unspecified) | 0.148
CCC(=O)N1CCC(Cc2nccnc2Nc2ccccn2)CC1 | 20.4
COc1cccc(OC)c1CN1CCC2(CC(Nc3ccncn3)C2)C1 (stereo unspecified) | -9.12
NC[C@H]1CC[C@H](C(NC(=O)c2ccccc2)c2ccccn2)CC1 (stereo partly specified) | 11.1
Cn1cc(C(=O)N2CCC(Cc3nccs3)CC2)cn1 | 22.3
CC(=O)N1CCCC1c1csc(Nc2cnccn2)n1 (stereo unspecified) | -4.91
CC(=O)N1CCCC1c1cc(N2CCN(C3CCCC3)CC2)cc(C)n1 (stereo unspecified) | -7.01
Cc1nc(-c2ccc(C(=O)O)cc2)cc(C2CCN(C(C)C)C2)n1 (stereo unspecified) | -9.52
Cc1cc(C(=O)N[C@H](C)c2onc(C)c2C(=O)O)c(C)o1 | -4.02
Cc1noc([C@@H](C)NCc2cccc(Cl)c2)c1C(=O)O | 2.52
CC(=O)NC[C@@]1(COc2cnccn2)C[C@@H](O)[C@@H](O)C1 | -3.14
Fc1ccc(CN2CCC(c3n[nH]c4ncccc34)CC2)cc1F | 22.2
Cc1ccc(CN(Cc2cccnc2)C2CC(C)(C)NC(C)(C)C2)s1 | 9.23
COc1cc(C2CC(=O)c3c(O)cc(O)cc3O2)ccc1O (stereo unspecified) | -8.7
